Earlier results as cited in patent US7064109B2, “Pharmaceutical composition based on macrolides for topical application in ophthalmology” (priority 2001, dated 2006).

Tested on: all sensitive microorganisms

In the case of `CC[C@H]1OC(=O)[C@H](C)[C@@H](O[C@H]2C[C@@](C)(OC)[C@@H](O)[C@H](C)O2)[C@H](C)[C@@H](O[C@@H]2O[C@H](C)C[C@H](N(C)C)[C@H]2O)[C@](C)(O)C[C@@H](C)CN(C)[C@H](C)[C@@H](O)[C@]1(C)O` [azithromycin, N-methyl-11-aza-10-deoxo-10-dihydroerythromycin], the “minimum level for eliminating microorganisms” value (conjunctival level) is listed as 0.25 µg/g and the minimum inhibitory concentration (minimum concentration for therapeutic effectiveness in the eyes, all sensitive microorganisms) is listed as 0.5 µg/g.
